≈ marks a conversion by molar mass, not a printed value. Calls of active or inactive are those of the source. The calls are words filed in the database; no cut-off is given here.
How the values were obtained:
Escherichia coli [1] = assay: Inhibition of Escherichia coli CSA1 porphobilinogen synthase assessed as enzyme activity at 10 mM relative to control; set-up: scale not given: the % may be the effect or the level left
[2] = system: Pseudomonas aeruginosa PAO1; assay: Activity at Pseudomonas aeruginosa PAO1 porphobilinogen synthase
Escherichia coli [3] = assay: Antimicrobial activity against Escherichia coli CSA1 at =< 40 mg/ml up to 24 hrs by microdilution method in absence of 5-aminolaevulinic acid; type: functional, organism-based
[4] = system: Pseudomonas aeruginosa PAO1; assay: Inhibition of Pseudomonas aeruginosa PAO1 porphobilinogen synthase assessed as enzyme activity at 10 mM relative to control; set-up: scale not given: the % may be the effect or the level left
[5] = biological target: T1, Delta-aminolevulinic acid dehydratase (Streptomyces avermitilis) (UniProt Q82E74); assay: Inhibition of Streptomyces avermitilis DSM 46492 porphobilinogen synthase assessed as enzyme activity at 10 mM relative to control; set-up: scale not given: the % may be the effect or the level left
T1 sequence (whole entry): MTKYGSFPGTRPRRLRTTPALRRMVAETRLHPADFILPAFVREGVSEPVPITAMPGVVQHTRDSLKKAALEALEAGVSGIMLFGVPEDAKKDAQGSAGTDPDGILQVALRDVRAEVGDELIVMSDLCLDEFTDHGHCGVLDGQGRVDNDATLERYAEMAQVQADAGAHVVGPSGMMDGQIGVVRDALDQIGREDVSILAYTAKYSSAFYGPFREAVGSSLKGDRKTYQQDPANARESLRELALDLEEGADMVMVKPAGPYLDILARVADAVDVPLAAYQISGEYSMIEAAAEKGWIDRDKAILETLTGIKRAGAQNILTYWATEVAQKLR

[6] = Antimicrobial activity against Streptomyces sp. A012304 up to 24 hrs by microdilution method; type: functional; conditions: Streptomyces sp. A012304, 24 h
[7] = system: Bacillus megaterium DSM 319; assay: Inhibition of Bacillus megaterium DSM319 porphobilinogen synthase assessed as enzyme activity at 10 mM relative to control; set-up: scale not given: the % may be the effect or the level left
Priestia megaterium = assay: Antimicrobial activity against Bacillus megaterium DSM319 up to 24 hrs by microdilution method; type: functional; conditions: DSM 319, 24 h
[8] = Inhibition of Methanosarcina barkeri porphobilinogen synthase by Lineweaver-Burke plot analysis
Streptomyces sp. A012304 [9] = assay: Inhibition of Streptomyces sp. A012304 porphobilinogen synthase assessed as enzyme activity at 10 mM relative to control; set-up: scale not given: the % may be the effect or the level left
Methanosarcina barkeri [10] = assay: Ratio of Kcat to Km for Methanosarcina barkeri porphobilinogen synthase
Escherichia coli [11] = assay: Antimicrobial activity against Escherichia coli DH10B up to 24 hrs by microdilution method; type: functional; conditions: K-12 DH10B
Streptomyces sp. A012304 [12] = assay: Inhibition of Streptomyces sp. A012304 porphobilinogen synthase assessed as enzyme activity at 5 mM relative to control; set-up: scale not given: the % may be the effect or the level left
Escherichia coli [13] = assay: Antimicrobial activity against Escherichia coli CSA1 up to 24 hrs by microdilution method; type: functional; conditions: CSA1, 24 h
[14] = system: Pseudomonas aeruginosa PAO1; assay: Ratio of Kcat to Km for Pseudomonas aeruginosa PAO1 porphobilinogen synthase
Streptomyces coelicolor = assay: Antimicrobial activity against Streptomyces coelicolor DMS 40233 up to 24 hrs by microdilution method; type: functional; conditions: DMS 40233, 24 h
[15] = biological target: T2, Delta-aminolevulinic acid dehydratase (Streptomyces coelicolor) (UniProt P54919); assay: Inhibition of Streptomyces coelicolor DMS 40233 porphobilinogen synthase assessed as enzyme activity at 5 mM relative to control; set-up: scale not given: the % may be the effect or the level left
T2 sequence (whole entry): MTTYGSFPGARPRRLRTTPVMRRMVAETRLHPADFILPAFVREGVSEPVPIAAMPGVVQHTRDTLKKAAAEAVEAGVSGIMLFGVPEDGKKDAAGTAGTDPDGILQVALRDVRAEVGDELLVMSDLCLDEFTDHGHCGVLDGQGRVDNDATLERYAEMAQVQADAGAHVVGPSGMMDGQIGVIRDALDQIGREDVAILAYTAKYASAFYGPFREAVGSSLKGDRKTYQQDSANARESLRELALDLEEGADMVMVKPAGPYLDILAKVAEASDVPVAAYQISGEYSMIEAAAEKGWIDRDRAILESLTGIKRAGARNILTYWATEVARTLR

Escherichia coli [16] = assay: Antimicrobial activity against Escherichia coli CSA1 at =< 40 mg/ml up to 24 hrs by microdilution method in presence of 5-aminolaevulinic acid and heme; type: functional, organism-based
[17] = system: Escherichia coli str. K-12 substr. DH10B; assay: Inhibition of Escherichia coli porphobilinogen synthase assessed as enzyme activity at 10 mM relative to control; set-up: scale not given: the % may be the effect or the level left
Escherichia coli [18] = assay: Antimicrobial activity against Escherichia coli CSA1 at =< 40 mg/ml up to 24 hrs by microdilution method in presence of 5-aminolaevulinic acid; type: functional, organism-based
[19] = biological target: T3, Delta-aminolevulinic acid dehydratase (Bacillus subtilis) (UniProt P30950); assay: Inhibition of Bacillus subtilis JH642 porphobilinogen synthase assessed as enzyme activity at 10 mM relative to control; set-up: scale not given: the % may be the effect or the level left
T3 sequence (whole entry): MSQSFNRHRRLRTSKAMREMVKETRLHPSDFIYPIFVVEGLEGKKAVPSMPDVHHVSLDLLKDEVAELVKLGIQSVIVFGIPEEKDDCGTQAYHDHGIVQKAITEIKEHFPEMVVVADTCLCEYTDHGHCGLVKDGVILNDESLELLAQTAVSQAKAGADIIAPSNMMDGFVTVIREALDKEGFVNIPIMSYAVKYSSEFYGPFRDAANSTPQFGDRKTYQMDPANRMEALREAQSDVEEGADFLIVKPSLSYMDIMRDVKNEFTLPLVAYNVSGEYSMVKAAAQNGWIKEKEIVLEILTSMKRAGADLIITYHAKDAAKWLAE

Methanosarcina barkeri [20] = assay: Activity at Methanosarcina barkeri porphobilinogen synthase
[21] = biological target: T2, Delta-aminolevulinic acid dehydratase (Streptomyces coelicolor); assay: Inhibition of Streptomyces coelicolor DMS 40233 porphobilinogen synthase assessed as enzyme activity at 10 mM relative to control; set-up: scale not given: the % may be the effect or the level left
[22] = Inhibition of Pseudomonas aeruginosa PAO1 porphobilinogen synthase by Lineweaver-Burke plot analysis
Pseudomonas aeruginosa = assay: Antimicrobial activity against Pseudomonas aeruginosa PAO1 up to 24 hrs by microdilution method; type: functional; conditions: PAO1, 24 h
[23] = Inhibition of Methanosarcina barkeri porphobilinogen synthase after 60 mins by spectrophotometry
Escherichia coli [24] = assay: Antimicrobial activity against Escherichia coli CSA1 at =< 40 mg/ml up to 24 hrs by microdilution method in presence of heme and absence of 5-aminolaevulinic acid; type: functional, organism-based
Bacillus subtilis = assay: Antimicrobial activity against Bacillus subtilis JH642 up to 24 hrs by microdilution method; type: functional; conditions: JH642, 24 h
[25] = biological target: T3, Delta-aminolevulinic acid dehydratase (Bacillus subtilis); assay: Inhibition of Bacillus subtilis JH642 porphobilinogen synthase assessed as enzyme activity at 5 mM relative to control; set-up: scale not given: the % may be the effect or the level left
[26] = system: Escherichia coli str. K-12 substr. DH10B; assay: Inhibition of Escherichia coli porphobilinogen synthase assessed as enzyme activity at 5 mM relative to control; set-up: scale not given: the % may be the effect or the level left
[27] = Inhibition of Pseudomonas aeruginosa PAO1 porphobilinogen synthase after 60 mins by spectrophotometry
[28] = biological target: T1, Delta-aminolevulinic acid dehydratase (Streptomyces avermitilis); assay: Inhibition of Streptomyces avermitilis DSM 46492 porphobilinogen synthase assessed as enzyme activity at 5 mM relative to control; set-up: scale not given: the % may be the effect or the level left
Streptomyces avermitilis = assay: Antimicrobial activity against Streptomyces avermitilis DSM 46492 up to 24 hrs by microdilution method; type: functional; conditions: DSM 46492, 24 h
Escherichia coli [29] = assay: Inhibition of Escherichia coli CSA1 porphobilinogen synthase assessed as enzyme activity at 5 mM relative to control; set-up: scale not given: the % may be the effect or the level left
[30] = system: Pseudomonas aeruginosa PAO1; assay: Inhibition of Pseudomonas aeruginosa PAO1 porphobilinogen synthase assessed as enzyme activity at 5 mM relative to control; set-up: scale not given: the % may be the effect or the level left
[31] = system: Bacillus megaterium DSM 319; assay: Inhibition of Bacillus megaterium DSM319 porphobilinogen synthase assessed as enzyme activity at 5 mM relative to control; set-up: scale not given: the % may be the effect or the level left

- Activity (Escherichia coli [1]): < 1%
- Km [2]: 0.32 mM
- kcat [2]: 16.1 s⁻¹
- Activity [4]: 25%
- Activity [5]: < 1%
- MIC [6]: > 20 mM
- Activity [7]: < 1%
- MIC (Priestia megaterium): 4 mM (≈ 741 µg/mL)
- Ki [8]: 1510 µM
- Activity (Streptomyces sp. A012304 [9]): 79%
- kcat/Km (Methanosarcina barkeri [10]): 170 M⁻¹ s⁻¹
- MIC (Escherichia coli [11]): 4 mM (≈ 741 µg/mL)
- Activity (Streptomyces sp. A012304 [12]): 90%
- MIC (Escherichia coli [13]): 10 mM (≈ 1850 µg/mL)
- kcat/Km [14]: 50300 M⁻¹ s⁻¹
- MIC (Streptomyces coelicolor): 8 mM (≈ 1480 µg/mL)
- Activity [15]: 77%
- Activity [17]: < 1%
- Activity [19]: 30%
- Km (Methanosarcina barkeri [20]): 0.07 mM
- kcat (Methanosarcina barkeri [20]): 0.012 s⁻¹
- Activity [21]: 22%
- Ki [22]: 1330 µM
- MIC (Pseudomonas aeruginosa): 12 mM (≈ 2220 µg/mL)
- IC50 [23]: 2200 µM
- MIC (Bacillus subtilis): 14 mM (≈ 2590 µg/mL)
- Activity [25]: 61%
- Activity [26]: 30%
- IC50 [27]: 2100 µM
- Activity [28]: 68%
- MIC (Streptomyces avermitilis): 8 mM (≈ 1480 µg/mL)
- Activity (Escherichia coli [29]): 36%
- Activity [30]: 92%
- Activity [31]: 3%
Compound: C=C(NC(C)=O)C(=O)CCC(=O)O [ALAREMYCIN]
- Activity (Escherichia coli [3]): Active
- Activity (Escherichia coli [16]): inactive
- Activity (Escherichia coli [18]): Active
- Activity (Escherichia coli [24]): inactive

From ChEMBL document CHEMBL1212745, “Structure of the heme biosynthetic Pseudomonas aeruginosa porphobilinogen synthase in complex with the antibiotic alaremycin” (Antimicrob Agents Chemother, 2010)
